Drawing on ChEMBL document CHEMBL3352544, “Screening and identification of novel compounds with potential anti-proliferative effects on gallium-resistant lung cancer through an AXL kinase pathway” (Bioorg Med Chem Lett, 2014), this text covers Activity and IC50 for two molecules.

Common to all, as to format: functional, cell-based
The subject of assay [1] is A549. Nature of the assay: Effect on AXL protein expression in gallium-sensitive human A549 cells at 50 uM fter 48 hrs by immunofluorescence assay.
In assay [2] the test system is A549. As to the kind of experiment: Potentiation of gallium acetylacetonate-induced antiproliferative activity against gallium-resistant human A549 cells assessed as allium acetylacetonate IC50 at 0.25 uM after 48 hrs by MTT assay. The settings on record: A549, 48 h. (Formazan colour is commonly taken as a measure of viable cells.)
Assay [3] deals with A549. As to the kind of experiment: Potentiation of gallium acetylacetonate-induced antiproliferative activity against gallium-sensitive human A549 cells at 0.25 uM after 48 hrs by MTT assay.
In assay [4] the test system is A549. As to the kind of experiment: Reduction in AXL protein expression in gallium-resistant human A549 cells at 50 uM fter 48 hrs by immunofluorescence assay.
The test system of assay [5] is A549. Nature of the assay: Antiproliferative activity against gallium-sensitive human A549 cells after 48 hrs by MTT assay. The settings on record: A549, 48 h.
Assay [6] deals with A549. As to the kind of experiment: Potentiation of gallium acetylacetonate-induced antiproliferative activity against gallium-resistant human A549 cells at 0.25 uM after 48 hrs by MTT assay.
Assay [7] deals with A549. As to the kind of experiment: Antiproliferative activity against gallium-resistant human A549 cells after 48 hrs by MTT assay. Conditions: A549, 48 h.

Active and inactive are the calls of the source. The rule behind the calls is not given here.

Broadly, the IC50 is the concentration needed to halve the response being measured.

Take `O=C(CSc1nnnn1-c1cccc2ccccc12)c1ccc(O)c(O)c1`: the result in assay [1] and in assay [3] was inactive. For the same molecule, the IC50 in assay [2] is 199 µM; in assay [5], 8.6 µM; in assay [7] it was 17.4 µM. For the same molecule, the outcome in assay [4] and in assay [6] was Active.
In the case of `Oc1c(CN2CCN(Cc3ccc4cccnc4c3O)CC2)ccc2cccnc12`, the result in assay [1] and in assay [3] was inactive. For the same molecule, the IC50 turned out to be 102 µM in assay [2], 3.6 µM in assay [5] and 2.8 µM in assay [7]. The outcome in assay [4] and in assay [6] was Active.
